Literature values as cited in patent publication US8293243B2 (priority 2004, dated 2012).
*1 amine or outer side, *2 acyl side, *3 side chain or, on linkers, in order; H or OH if unused. Where a SMILES comes first, the peptide text is derived from it. Bridges are numbered along the chain shown (N, C = ends). Roman numbers before positions name the chains, in order. [ ]: non-standard residue; d: D form. Actinocin(9to1) = Cc1c2oc3c(C)ccc(C(=O)[*:1])c3nc-2c(C(=O)[*:2])c(N)c1=O; NMeV = CN[C@H](C(=O)O)C(C)C; Sar = CNCC(=O)O

Conditions: in vivo; cited from earlier work

## Cc1c2oc3c(C)ccc(C(=O)N[C@@H]4C(=O)N[C@H](C(C)C)C(=O)N5CCC[C@H]5C(=O)N(C)CC(=O)N(C)[C@@H](C(C)C)C(=O)O[C@@H]4C)c3nc-2c(C(=O)N[C@@H]2C(=O)N[C@H](C(C)C)C(=O)N3CCC[C@H]3C(=O)N(C)CC(=O)N(C)[C@@H](C(C)C)C(=O)O[C@@H]2C)c(N)c1=O [Actinomycin D] (I: T[dV]P[Sar][NMeV] / II: T[dV]P[Sar][NMeV]; ester I:1-I:C, II:1-II:C; linker I:N-II:N via Actinocin(9to1))
  passage of the blood-brain barrier: does not pass the blood-brain barrier
